What was measured:
glucocorticoid receptor = biological target: T1, glucocorticoid receptor (Homo sapiens, UniProt P04150); experiment: Glucocorticoid Receptor Binding Assay ([3H]-dexamethasone, A549 cell extract); details: [3H]-dexamethasone binding, read-out: GR Ki
T1 construct: containing 50-200 ug of A549 cell extract and 1.86 nM [^3H]-dexamethasone; host or cells: A549 human lung epithelial cells (sonicated cell extract)
T1 sequence (P04150 1-777): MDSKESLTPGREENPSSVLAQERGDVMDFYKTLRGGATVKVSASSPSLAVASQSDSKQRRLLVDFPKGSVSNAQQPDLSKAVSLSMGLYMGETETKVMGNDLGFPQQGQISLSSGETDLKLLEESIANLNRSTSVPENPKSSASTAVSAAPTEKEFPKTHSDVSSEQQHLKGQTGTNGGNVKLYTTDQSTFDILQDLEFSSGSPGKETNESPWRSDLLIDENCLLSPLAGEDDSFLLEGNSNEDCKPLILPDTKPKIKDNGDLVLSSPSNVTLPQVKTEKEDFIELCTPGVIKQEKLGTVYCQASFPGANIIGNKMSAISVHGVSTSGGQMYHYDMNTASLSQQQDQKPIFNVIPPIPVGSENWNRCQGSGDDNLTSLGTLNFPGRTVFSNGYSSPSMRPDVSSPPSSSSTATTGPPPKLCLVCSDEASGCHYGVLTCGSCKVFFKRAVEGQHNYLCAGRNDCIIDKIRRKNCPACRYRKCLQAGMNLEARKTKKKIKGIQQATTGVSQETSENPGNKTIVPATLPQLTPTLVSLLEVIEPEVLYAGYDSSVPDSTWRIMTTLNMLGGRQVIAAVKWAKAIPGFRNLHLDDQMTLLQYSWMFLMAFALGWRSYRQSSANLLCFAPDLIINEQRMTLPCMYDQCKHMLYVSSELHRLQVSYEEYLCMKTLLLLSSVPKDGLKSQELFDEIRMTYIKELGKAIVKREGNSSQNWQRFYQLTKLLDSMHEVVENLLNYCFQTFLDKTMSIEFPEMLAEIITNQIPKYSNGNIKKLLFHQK
Summary of the method: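 Displacement of [3H]-dexamethasone (1.86 nM) from glucocorticoid receptor in sonicated A549 lung epithelial cell extracts, 16 h at 4 °C, pH 7.2 molybdate-containing buffer. Bound radioactivity was scintillation-counted after charcoal/dextran stripping of free ligand.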

human MR = biological target: T2, human MR (Homo sapiens, UniProt P08235); experiment: Mineralocorticoid Receptor Binding Assay ([3H]-aldosterone); details: [3H]-aldosterone binding, human MR expressed in Sf9 cells; read-out: MR Ki
T2 construct: The full length human MR gene is cloned from a human kidney or human brain cDNA library; His tag from the pAcHLT vector (own knowledge); made in house; host or cells: Sf9 insect cells (baculovirus, pAcHLT transfer vector)
T2 sequence (P08235 1-984): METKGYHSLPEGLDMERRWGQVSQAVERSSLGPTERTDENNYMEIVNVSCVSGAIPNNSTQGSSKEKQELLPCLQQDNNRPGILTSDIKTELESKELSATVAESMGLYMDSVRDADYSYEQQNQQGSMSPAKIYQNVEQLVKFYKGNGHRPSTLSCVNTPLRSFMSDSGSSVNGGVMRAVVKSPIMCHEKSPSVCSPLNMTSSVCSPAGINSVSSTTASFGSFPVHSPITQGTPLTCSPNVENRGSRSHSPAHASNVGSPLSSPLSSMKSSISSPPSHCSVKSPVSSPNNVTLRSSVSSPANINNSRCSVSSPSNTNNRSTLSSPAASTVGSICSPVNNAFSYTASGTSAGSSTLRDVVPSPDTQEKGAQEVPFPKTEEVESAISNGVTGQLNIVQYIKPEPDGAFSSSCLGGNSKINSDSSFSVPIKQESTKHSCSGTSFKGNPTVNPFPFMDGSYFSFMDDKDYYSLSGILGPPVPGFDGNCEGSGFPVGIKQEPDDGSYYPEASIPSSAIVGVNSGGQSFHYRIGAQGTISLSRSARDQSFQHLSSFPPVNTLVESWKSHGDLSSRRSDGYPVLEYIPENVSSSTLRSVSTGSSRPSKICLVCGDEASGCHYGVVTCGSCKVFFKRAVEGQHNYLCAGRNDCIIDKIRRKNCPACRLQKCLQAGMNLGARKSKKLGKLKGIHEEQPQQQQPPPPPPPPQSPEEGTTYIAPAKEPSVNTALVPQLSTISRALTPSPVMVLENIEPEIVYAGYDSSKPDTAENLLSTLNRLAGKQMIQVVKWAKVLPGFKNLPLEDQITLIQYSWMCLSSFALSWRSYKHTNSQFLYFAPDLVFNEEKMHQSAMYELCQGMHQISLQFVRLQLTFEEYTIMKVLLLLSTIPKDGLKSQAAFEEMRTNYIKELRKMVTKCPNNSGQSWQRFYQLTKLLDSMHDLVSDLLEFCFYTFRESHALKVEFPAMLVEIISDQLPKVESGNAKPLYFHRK
Summary of the method: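 Receptor source: freeze-thaw lysate of baculovirus-infected Sf9 cells carrying full-length human MR, 20-25 μg protein. Incubation ~16 h at 4 °C with shaking, pH 7.5 buffer containing 30 mM sodium molybdate and 10% glycerol.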

Row | SMILES | melting point [°C] | Ki (glucocorticoid receptor) [nM] | Ki (human MR) [nM]
1 | O=S(=O)(c1ccccc1C=C1c2ccccc2CCc2ccccc21)N1CCOCC1 [Example 8, 4-[2-(10,11-Dihydro-dibenzo[a,d]cyclohepten-5-ylidenemethyl)-benzenesulfonyl]-morpholine] | 139.3 |  | 
2 | Cc1cc(S(=O)(=O)N(C)C)c(C=C2c3ccccc3CCc3ccccc32)cc1Cl [Example 10, 4-Chloro-2-(10,11-dihydro-dibenzo[a,d]cyclohepten-5-ylidenemethyl)-5,N,N-trimethylbenzenesulfonamide] | 199.9 |  | 
3 | Cc1cc(S(=O)(=O)N2CCOCC2)c(C=C2c3ccccc3CCc3ccccc32)cc1Cl [Example 12, 4-[4-Chloro-2-(10,11-dihydro-dibenzo[a,d]cyclohepten-5-ylidenemethyl)-5-methyl-benzenesulfonyl]-morpholine] | 194.7 |  | 
4 | Cc1ccc(C=C2c3ccccc3CCc3ccccc32)c(S(=O)(=O)Nc2ccccc2)c1 [Example 13] | 220.4 |  | 
5 | Cc1ccc(C=C2c3ccccc3CCc3ccccc32)c(S(=O)(=O)NC2CC2)c1 [Example 14, N-Cyclopropyl-2-(10,11-dihydro-dibenzo[a,d]cyclohepten-5-ylidenemethyl)-5-methyl-benzenesulfonamide] | 160.8 |  | 
6 | Cc1ccc(C=C2c3ccccc3CCc3ccccc32)c(S(=O)(=O)NCc2ccccc2)c1 [Example 15, N-Benzyl-2-(10,11-dihydro-dibenzo[a,d]cyclohepten-5-ylidenemethyl)-5-methyl-benzenesulfonamide] | 138.3 |  | 
7 | CCNS(=O)(=O)c1cc(C)ccc1C=C1c2ccccc2CCc2ccccc21 [Example 17, 2-(10,11-Dihydro-dibenzo[a,d]cyclohepten-5-ylidenemethyl)-N-ethyl-5-methyl-benzenesulfonamide] | 172.4 |  | 
8 | Cc1ccc(C=C2c3ccccc3CCc3ccccc32)c(S(=O)(=O)N(C)C)c1 [Example 19, 2-(10,11-Dihydro-dibenzo[a,d]cyclohepten-5-ylidenemethyl)-5,N,N-trimethyl-benzenesulfonamide] | 186.6 |  | 
9 | CCCNS(=O)(=O)c1cc(C)ccc1C=C1c2ccccc2CCc2ccccc21 [Example 20, 2-(10,11-Dihydro-dibenzo[a,d]cyclohepten-5-ylidenemethyl)-5-methyl-N-propyl-benzenesulfonamide] | 149.8 |  | 
10 | Cc1ccc(C=C2c3ccccc3CCc3ccccc32)c(S(=O)(=O)N2CCOCC2)c1 [Example 22, 4-[2-(10,11-Dihydro-dibenzo[a,d]cyclohepten-5-ylidenemethyl)-5-methyl-benzenesulfonyl]-morpholine] | 157.2 |  | 
11 | Cc1ccc(C=C2c3ccccc3CCc3ccccc32)c(S(=O)(=O)NCC(F)(F)F)c1 [Example 23, 2-(10,11-Dihydro-dibenzo[a,d]cyclohepten-5-ylidenemethyl)-5-methyl-N-(2,2,2-trifluoro-ethyl)-benzenesulfonamide] | 100.7 |  | 
12 | NS(=O)(=O)c1cccc(C=C2c3ccccc3CCc3ccccc32)c1 [Example 24, 3-(10,11-Dihydro-dibenzo[a,d]cyclohepten-5-ylidenemethyl)-benzenesulfonamide] | 204 |  | 
13 | CN(C)S(=O)(=O)c1cccc(C=C2c3ccccc3CCc3ccccc32)c1 [Example 25, 3-(10,11-Dihydro-dibenzo[a,d]cyclohepten-5-ylidenemethyl)-N,N-dimethyl-benzenesulfonamide] | 167.3 |  | 
14 | Brc1cccc(C=C2c3ccccc3CCc3ccccc32)c1 [Example 28, 5-(3-Bromo-benzylidene)-10,11-dihydro-5H-dibenzo-[a,d]cycloheptene] | 104.7 |  | 
15 | Brc1ccccc1C=C1c2ccccc2CCc2ccccc21 [Example 29, 5-(2-Bromo-benzylidene)-10,11-dihydro-5H-dibenzo-[a,d]cycloheptene] | 122.7 |  | 
16 | COc1ccc(C=C2c3ccccc3CCc3ccccc32)cc1 [Example 33, 5-(4-Methoxy-benzylidene)-10,11-dihydro-5H-dibenzo-[a,d]cycloheptene] | 116.8 |  | 
17 | COc1ccc(C=C2c3ccccc3CCc3ccccc32)cc1Br [Example 34, 5-(3-Bromo-4-methoxy-benzylidene)-10,11-dihydro-5H-dibenzo[a,d]cycloheptene] | 140.7 |  | 
18 | COc1ccc(C=C2c3ccccc3CCc3ccccc32)cc1OC [Example 36, 5-(3,4-Dimethoxy-benzylidene)-10,11-dihydro-5H-dibenzo[a,d]cycloheptene] | 102.8 |  | 
19 | C/C(=C1/c2ccccc2COc2cc(F)ccc21)c1ccc2[nH]c(=O)[nH]c2c1 [Example 838] |  | < 500 | < 500
20 | C/C(=C1\c2ccccc2COc2cc(F)ccc21)c1ccc2[nH]c(=O)[nH]c2c1 [Example 839] |  | < 500 | < 500

The remaining lines, values ahead:

Row | melting point [°C] | Ki (glucocorticoid receptor) [nM] | Ki (human MR) [nM] | SMILES
21 |  | < 500 | < 500 | CC/C(=C1\c2ccc(OC)cc2COc2cc(F)ccc21)c1cccc(NS(C)(=O)=O)c1 [Example 824]
22 |  | < 500 | < 500 | COc1ccc2c(c1)CCc1cc(C)ccc1C2=C(C)c1cccc(NS(C)(=O)=O)c1 [Example 827]
23 |  | < 500 | < 500 | COc1ccc2c(c1)CCc1cc(C)ccc1/C2=C(/C)c1cccc(NS(C)(=O)=O)c1 [Example 828]
24 |  | < 500 | < 500 | COc1ccc2c(c1)CCc1cc(C)ccc1/C2=C(\C)c1cccc(NS(C)(=O)=O)c1 [Example 829]
25 |  | < 500 | < 500 | CC(=C1c2ccc(C)cc2CCc2cc(F)ccc21)c1cccc(NS(C)(=O)=O)c1 [Example 830]
26 |  | < 500 | < 500 | C/C(=C1\c2ccc(C)cc2CCc2cc(F)ccc21)c1cccc(NS(C)(=O)=O)c1 [Example 831]
27 |  | < 500 | < 500 | C/C(=C1/c2ccc(C)cc2CCc2cc(F)ccc21)c1cccc(NS(C)(=O)=O)c1 [Example 832]
28 |  | < 500 | < 500 | CCC(=C1c2ccc(C)cc2CCc2cc(F)ccc21)c1cccc(NS(C)(=O)=O)c1 [Example 833]
29 |  | < 500 | < 500 | C/C(=C1/c2ccc(F)cc2CCc2ncccc21)c1cc(F)cc(NS(C)(=O)=O)c1 [Example 836]
30 |  | < 500 | < 500 | C/C(=C1\c2ccc(F)cc2CCc2ncccc21)c1cc(F)cc(NS(C)(=O)=O)c1 [Example 837]
31 |  | < 500 | < 500 | COc1ccc2c(c1)CSc1ccccc1C2=C(C)c1cccc(NS(C)(=O)=O)c1 [Example 840]
32 |  | < 500 | < 500 | COc1ccc2c(c1)CSc1ccccc1/C2=C(/C)c1cccc(NS(C)(=O)=O)c1 [Example 841]
33 |  | < 500 | < 500 | COc1ccc2c(c1)CSc1ccccc1/C2=C(\C)c1cccc(NS(C)(=O)=O)c1 [Example 842]

— US20060063759A1, “Tricyclic steroid hormone nuclear receptor modulators” (priority 2002, published 2006)
